Molecules are shown by their SMILES. Counter-ions that a name gives are not always drawn.

The assay deals with T1, Calcium sensing receptor (hCaSR) (Homo sapiens, UniProt P41180).
T1 construct: expressed in transfected cells
T1 sequence (P41180 20-1078): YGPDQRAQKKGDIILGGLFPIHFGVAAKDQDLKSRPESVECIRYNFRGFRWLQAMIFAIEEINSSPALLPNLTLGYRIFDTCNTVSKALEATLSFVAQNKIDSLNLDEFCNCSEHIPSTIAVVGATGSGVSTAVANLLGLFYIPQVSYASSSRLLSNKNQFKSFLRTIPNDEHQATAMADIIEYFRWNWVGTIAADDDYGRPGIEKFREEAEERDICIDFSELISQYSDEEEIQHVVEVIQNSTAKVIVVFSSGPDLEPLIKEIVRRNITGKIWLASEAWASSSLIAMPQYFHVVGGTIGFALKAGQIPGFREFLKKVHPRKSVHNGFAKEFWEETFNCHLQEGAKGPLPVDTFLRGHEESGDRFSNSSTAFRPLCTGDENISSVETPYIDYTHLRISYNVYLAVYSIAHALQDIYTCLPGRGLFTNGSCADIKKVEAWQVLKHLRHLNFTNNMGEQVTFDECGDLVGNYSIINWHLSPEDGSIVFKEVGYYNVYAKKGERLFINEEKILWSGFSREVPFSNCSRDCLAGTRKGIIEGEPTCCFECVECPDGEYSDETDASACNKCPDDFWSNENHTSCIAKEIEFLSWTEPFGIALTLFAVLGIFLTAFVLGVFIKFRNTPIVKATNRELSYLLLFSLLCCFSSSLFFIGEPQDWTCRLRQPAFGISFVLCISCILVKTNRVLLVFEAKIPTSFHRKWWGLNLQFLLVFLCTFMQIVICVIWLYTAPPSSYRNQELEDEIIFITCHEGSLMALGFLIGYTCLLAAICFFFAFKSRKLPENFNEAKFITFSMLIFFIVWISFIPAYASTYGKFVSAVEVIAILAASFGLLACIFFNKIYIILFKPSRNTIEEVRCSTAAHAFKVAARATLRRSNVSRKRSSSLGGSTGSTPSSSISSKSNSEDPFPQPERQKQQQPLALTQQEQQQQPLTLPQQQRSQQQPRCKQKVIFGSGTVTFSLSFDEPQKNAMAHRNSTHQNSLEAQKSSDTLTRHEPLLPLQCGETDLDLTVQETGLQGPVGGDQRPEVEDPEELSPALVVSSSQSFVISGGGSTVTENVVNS
The assay is described as follows: In-vitro assay of calcimimetics through modulation of calcium sensing receptor: increase in intracellular calcium [Ca2+]i, FLIPR. The format is cell-based. The conditions noted are these: stably transfected HEK293 cells expressing hCaSR; Fluo4NW dye; 0.3 mM CaCl2; 8-point assay; read-out: EC50 Range. On the procedure:
In-Vitro Assay Method of Calcimemtics Through Modulation of Calcium Sensing Receptor (CaSR):
The ability of the compounds to modulate Calcium sensing receptor is determined by measuring an increase in intracellular calcium [Ca^2+]i. Stably transfected HEK293 cells expressing hCaSR_pTriEx-3 hygro vector are developed. Cells are grown overnight on a 96-well plate to 80% confluency in Ham's F12 containing 20% FBS at 37° C., 5% CO2. Subsequently, cells are washed extensively with 20 mM HEPES buffer containing 126 mM NaCl, 1 mM MgCl2 and 4 mM KCl to remove serum components that might interfere with the assay. Cells are loaded with calcium sensing Fluo4NW dye in HEPES base buffer containing 0.1% BSA and 1 mg/ml glucose for 30 minutes to measure changes in intracellular calcium. The activities of the compounds are measured in FLIPR using 0.3 mM CaCl2 in 20 mM HEPES base buffer. The effectiveness of the compound to modulate receptor activity is determined by calculating the EC50 responses for that compound in an 8-point assay and plotted using GraphPad Prism 5.
`C[C@@H](NCCC1CN(c2ccc(OCC(=O)O)cc2)c2cc(F)ccc2O1)c1cccc2ccccc12` (single isomer, unassigned) [Example 168a]: the EC50 is less than 0.02 µM.
For `C[C@@H](NCC1CN(c2ccc(O)c(C(=O)O)c2)c2ccccc2O1)c1cccc2ccccc12` (single isomer, unassigned) [Example 66a, hydrochloride] the value was 0.02 to 0.05 µM.
For `C[C@@H](NCC1CN(c2ccc(C(=O)O)cc2)c2ccccc2O1)c1cccc2ccccc12` (stereo partly drawn) [Example 6, 4-(2-((((R)-1-(Naphthalen-1-yl)ethyl)amino)methyl)-2H-benzo[b][1,4]oxazin-4(3H)-yl)benzoic acid hydrochloride] the value was 0.05 to 0.2 µM.
With `C[C@@H](NCC1CN(c2cccc(OCC(=O)O)c2)c2ccccc2O1)c1cccc2ccccc12` (stereo partly drawn) [Example 50, 2-(3-(2-((((R)-1-(naphthalen-1-yl)ethyl)amino)methyl)-2H-benzo[b] [1,4]oxazin-4(3H)-yl)phenoxy)acetic acid hydrochloride] the figure was 0.02 to 0.05 µM.
`C[C@@H](NCC1CN(c2ccc(C(F)(F)F)c(C(=O)O)c2)c2ccccc2O1)c1cccc2ccccc12` (single isomer, unassigned) [Example 60a, hydrochloride]: the EC50 lay within 0.02 to 0.05 µM.
For `Cc1ccc(N2CC(CN[C@H](C)c3cccc4ccccc34)Oc3cc(F)ccc32)cc1C(=O)O` (stereo partly drawn) [Example 84, 5-(7-Fluoro-2-((((R)-1-(naphthalen-1-yl)ethyl)amino)methyl)-2H-benzo[b][1,4]oxazin-4(3H)-yl)-2-methyl benzoic acid hydrochloride], the 50% effective concentration (EC50) lay within 0.02 to 0.05 µM.
With `COc1ccc(N2CC(CN[C@H](C)c3cccc4ccccc34)Oc3ccccc32)cc1C(=O)O` (single isomer, unassigned) [Example 67b, hydrochloride] the figure was 0.05 to 0.2 µM; with `C[C@@H](NCCC1CN(c2cccc(OCC(=O)O)c2)c2ccccc2O1)c1cccc2ccccc12` (stereo partly drawn) [Example 138a, 2-(3-(2-(2-(((R)-1-(Naphthalen-1-yl)ethyl)amino)ethyl)-2H-benzo[b][1,4]oxazin-4(3H)-yl)phenoxy)aceticacid hydrochloride], less than 0.02 µM; with `C[C@@H](NCC1CN(c2cccc(CC(=O)O)c2)c2ccccc2O1)c1cccc2ccccc12` (stereo partly drawn) [Example 69, 2-(3-(2-((((R)-1-(Naphthalen-1-yl)ethyl)amino)methyl)-2H-benzo [b][1,4]oxazin-4(3H)-yl)phenyl)acetic acid hydrochloride], 0.05 to 0.2 µM.
For `C[C@@H](NCCC1CN(c2ccc(CCC(=O)O)cc2)c2ccccc2O1)c1cccc2ccccc12` (stereo partly drawn) [Example 139a, 3-(4-(2-(2-(((R)-1-(Naphlhalen-1-yl)ethyl)amino)ethyl)-2H-benzo [b][1,4]oxazin-4(3H)-yl)phenyl)propanoic acid hydrochloride] the value was less than 0.02 µM.
In the case of `C[C@@H](NCCC1CN(c2cccc(OCC(=O)O)c2)c2c(F)cccc2O1)c1cccc2ccccc12` (single isomer, unassigned) [Example 171a, hydrochloride], the EC50 is less than 0.02 µM.
`Cc1ccc(N2CC(CN[C@H](C)c3cccc4ccccc34)Oc3ccccc32)cc1C(=O)NCC(=O)O` (single isomer, unassigned) [Example 79b, hydrochloride]: the concentration for a half-maximal effect (EC50) was less than 0.02 µM.
For `COc1ccc(N2CC(CCN[C@H](C)c3cccc4ccccc34)Oc3ccccc32)cc1C(=O)O` (stereo partly drawn) [Example 141a, 2-Methoxy-5-(2-(2-(((R)-1-(naphthalen-1-yl)ethyl)amino)ethyl)-2H-benzo[b] [1,4]oxazin-4(3H)-yl) benzoic acid hydrochloride] the value was less than 0.02 µM; for `C[C@@H](NCCC1CN(c2cccc(C(=O)O)c2)c2cc(F)ccc2O1)c1cccc2ccccc12` (single isomer, unassigned) [Example 167b], 0.02 to 0.05 µM; for `COC(=O)c1cc(N2CC(CN[C@H](C)c3cccc4ccccc34)Oc3ccccc32)ccc1C` (single isomer, unassigned) [Example 31a], 0.02 to 0.05 µM.
For `C[C@@H](NCCC1CN(c2cccc(OCC(=O)O)c2)c2cc(F)ccc2O1)c1cccc2ccccc12` (single isomer, unassigned) [Example 169a, hydrochloride] the value was less than 0.02 µM.
As for `Cc1cc(N2CC(CN[C@H](C)c3cccc4ccccc34)Oc3ccccc32)ccc1C(=O)O` (single isomer, unassigned) [Example 73b, hydrochloride], the EC50 is less than 0.02 µM.
As to `C[C@@H](NCC1CN(c2ccc(Cl)c(C(=O)O)c2)c2ccccc2O1)c1cccc2ccccc12` (single isomer, unassigned) [Example 75b, hydrochloride], the EC50 is 0.05 to 0.2 µM.
With `CC(C)c1ccc(N2CC(CCN[C@H](C)c3cccc4ccccc34)Oc3ccccc32)cc1C(=O)O` (stereo partly drawn) [Example 137a, 2-Isopropyl-5-(2-(2-(((R)-1-(naphthalen-1-yl)ethyl)amino)ethyl)-2H-benzo[b] [1,4]oxazin-4(3H)-yl) benzoic acid hydrochloride] the figure was 0.05 to 0.2 µM.
As to `C[C@@H](NCC1CN(c2ccc(CCC(=O)O)cc2)c2ccccc2O1)c1cccc2ccccc12` (stereo partly drawn) [Example 48, 3-(4-(2-((((R)-1-(naphthalen-1-yl)ethyl)amino)methyl)-2H-benzo [b][1,4]oxazin-4(3H)-yl)phenyl)propanoic acid], the EC50 was 0.05 to 0.2 µM.
With `C[C@@H](NCC1CN(c2cc(F)cc(C(=O)O)c2)c2ccccc2O1)c1cccc2ccccc12` (stereo partly drawn) [Example 72, 3-Fluoro-5-(2-((((R)-1-(naphthalen-1-yl)ethyl)amino)methyl)-2H-benzo [b][1,4]oxazin-4(3H)-yl) benzoic acid hydrochloride] the figure was 0.05 to 0.2 µM; with `CCOC(=O)c1c(C)ccc(N2CC(CN[C@H](C)c3cccc4ccccc34)Oc3ccccc32)c1C` (single isomer, unassigned) [Example 24b], 0.02 to 0.05 µM; with `Cc1ccc(N2CC(CCN[C@H](C)c3cccc4ccccc34)Oc3ccccc32)c(C)c1C(=O)O` (stereo partly drawn) [Example 148a, 2,6-Dimethyl-3-(2-(2-(((R)-1-(naphthalen-1-yl)ethyl)amino)ethyl)-2H-benzo[b] [1,4]oxazin-4(3H)-yl) benzoic acid hydrochloride], less than 0.02 µM.

The EC50 is the midpoint of the concentration-response curve.

These data come from patent US9464063B2, “Benzo [B] [1,4] oxazin derivatives as calcium sensing receptor modulators” (LUPIN ATLANTIS HOLDINGS SA, priority 2011, dated 2016).
